Test results published in patent publication US20190231751A1, “TREATMENT OF FIBROTIC DISORDERS WITH JUN N-TERMINAL KINASE INHIBITORS” (Imago Pharmaceuticals, Inc., priority 2016, published 2019).

Columns and labels:
[1] = Rat PK/PD study: plasma compound levels by LC/MS; assay type: in vivo; settings: female Wistar rats; kainic acid 60 minutes after compound; blood 4 hours post kainic acid
Protocol: Plasma compound levels for two of the JNK inhibitors, IGP001 (Formula (XXI)) and IGP002 (Formula (XXII)), were obtained using a rat model for pharmaceutical administration of the compounds. Female Wistar rats, 7-9 weeks old, were obtained (SLAC Laboratory Animal Co. Ltd., Shanghai, China), and three groups of animals (n=3 each) received 1) kainic acid and 2) either IGP001 in vehicle, IGP002 in vehicle, or vehicle alone. The animals received the kainic acid 60 minutes after they received the IGP001 in vehicle, IGP002 in vehicle, and or vehicle alone.
For administration, the kainic acid was dissolved in saline, and introduced to the rats using the protocol as generally disclosed in Tse K, Puttachary S, Beamer E, Sills G J, Thippeswamy T (2014) PLoS One 9:e96622. Animals in each group were surgically implanted with catheters in carotid artery using polyurethane tubing and heparin (50 IU/mL)/glucose (50%) solutions as the lumen lock solution. Anaesthetic barbital was used during the surgery. The animals were allowed to recover seven days after surgery.
The animals were euthanized 4 hours post kainic acid administration using CO2 inhalation and blood was collected via cardiac puncture. 5 mL blood was transferred into pre-labled plastic microcentrifuge tubes containing K2-EDTA (0.5M) as anti-coagulant. Plasma levels were determined by a validated LC/MS analysis.

[2] = system: bleomycin-induced lung fibrosis; experiment: Mouse bleomycin-induced lung fibrosis model, preventative study; assay type: in vivo; settings: 10 mg/kg and 30 mg/kg b.i.d. oral gavage starting prior to bleomycin; 14 days
Protocol: Age and gender-matched wild type mice on the C57BL/6 background were utilized for this study, which is outlined in Table 1: Mice are housed in a sterile barrier facility at the Yale University School of Medicine and all proposed procedures are approved on existing mouse protocols. Mice were given a single inhaled dose of 1.25 Units/kg pharmacologic grade bleomycin (Teva Pharmaceuticals, Israel) in a volume of 50 μl. Mice received twice daily administered IGP001, via oral gavage, on a b.i.d. schedule starting prior to bleomycin treatment in this preventative study. Mice were sacrificed at 14 days following the administration of bleomycin and assessed as appropriate for the outcomes shown in Table 2: Briefly, lung inflammation was assessed by Bronchoalveolar lavage cell counts. Total soluble lung collagen will be quantified using Sircol Assay (Biocolour, Ireland). Formalin fixed, paraffin embedded mouse lung sections were stained with hematoxylin and eosin to assess gross morphology, morphometry, and Ashcroft scores and with Masson's trichrome stains to visualize collagen deposition.

[3] = target: JNK3 (Homo sapiens, UniProt P53779); experiment: In vitro JNK3 inhibition (Table 1); assay type: biochemical
JNK3, sequence (P53779 whole entry, species assumed): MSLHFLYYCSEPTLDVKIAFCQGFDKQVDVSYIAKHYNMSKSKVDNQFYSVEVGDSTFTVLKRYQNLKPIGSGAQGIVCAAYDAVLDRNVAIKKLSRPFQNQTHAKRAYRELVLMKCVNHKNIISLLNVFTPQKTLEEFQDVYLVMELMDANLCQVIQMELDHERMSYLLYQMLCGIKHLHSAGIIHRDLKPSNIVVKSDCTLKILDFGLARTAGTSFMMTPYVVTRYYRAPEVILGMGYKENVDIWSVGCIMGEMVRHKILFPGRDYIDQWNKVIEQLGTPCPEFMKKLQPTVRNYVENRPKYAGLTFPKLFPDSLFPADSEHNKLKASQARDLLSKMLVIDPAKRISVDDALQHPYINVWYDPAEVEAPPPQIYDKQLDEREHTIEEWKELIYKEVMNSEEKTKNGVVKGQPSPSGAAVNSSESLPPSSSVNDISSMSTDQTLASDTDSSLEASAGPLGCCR
Protocol: In vitro assays for the determination of JNK activities are known in the art and exemplary assay formats are described herein.
IC50 values in Table 1 were determined using the procedures as described in U.S. Pat. No. 8,450,353.

[4] = system: SMAD2; experiment: TGF-β1-induced SMAD2 phosphorylation in HFL-1 cells (Western blot); assay type: cell-based, human; settings: TGF-β1 1 ng/ml
Protocol: TGF-β1 factors initiate signaling by assembling receptor complexes that activate SMAD proteins. IGP001 and IGP002 are tested for their ability to suppress TGF-031 induction of SMAD signaling pathway by detecting the dually phosphorylated (Ser 465/Ser 467) form of SMAD2 by Western blotting against specific anti-phosphokinase antibody.
HFL-1 cells are created as described above in Example 3. HFL-1 cells are cultured with 0.1% DMSO (control vehicle), IGP001 or IGP002 for 30 min before stimulation with TGF-β1 (1 ng/ml) for 4 hours. Total RNA is extracted and hybridized with human CTGF probes, and messenger RNA levels are quantified by densitometry and optical density of CTGF mRNA band was corrected for G3PDH, and results are expressed as ratio (%) of control value (TGF-β1-stimulated HFL-1 cells).
Phosphorylation of SMAD2 following treatment with IGP001 or IGP002 are also determined by Western blotting whole cell lysates using an antibody specific for phosphorylated forms of SMAD2.

[5] = system: monocyte/macrophage recruitment; experiment: Monocyte/macrophage recruitment in vivo (Example 9); settings: 10 mg/kg/day p.o.; model not specified
[6] = system: c-Jun phosphorylation at serine 63; experiment: ELISA of c-Jun phosphorylation in PBMC of treated rats; assay type: in vivo, rat; settings: 10 and 30 mg/kg; kainic acid treated rats
Protocol: Blood from the animals treated with kainic acid as per Example 1 above was processed for the characterization of peripheral blood mononuclear cells (PBMC) from the treated animals. Briefly, the final blood samples from the exsanguinated rats were immediately centrifuged at 3,000 g for 10 minutes at 4° C. The plasma in upper layer was removed, and the remaining portion used for the isolation of the PBMC.
The buffy coat of PBMCs at the erythrocyte-plasma interface and the top red cell layer were collected into a 15 mL falcon tube containing 3 ml chilled PBS. The sample was resuspended and transferred to other 15 mL falcon tubes containing 6 ml Ficoll-Paque plus density gradient, and centrifuged at 18° C. for 10 minutes at 800 g. […] The middle ‘cloudy’ interface layer between plasma and Ficoll containing the PBMCs was transferred to a 15 mL tube, washed with 10 mL of cold PBS (4° C., 1×PBS), and centrifuged for 5 min at 4° C. at 1000 g. The supernatant was discarded.
The isolated PBMC were subjected to an ELISA assay using a kit for the detection of c-Jun phosphorylation at serine 63. Detection of phospho-Jun was carried out for the PMBCs of each kainic acid administered rat group: those receiving IGP001 in vehicle, those receiving IGP002 in vehicle, or those receiving vehicle alone.

Question: With O=C(Cn1c(=O)ccc2cc(C(F)(F)F)ccc21)Nc1scc(Br)c1-c1nnc[nH]1 [IGP001, N-(4-bromo-3-(1H-1,2,4-triazol-5-yl)thiophen-2-yl)-2-(2-oxo-6-(trifluoromethyl)quinolin-1(2H)-yl)acetamide] as the compound, how does the “plasma compound levels versus cellular EC50” value [1] read?
Answer: sufficient compound in the plasma of treated animals to exceed cellular EC50 in the periphery

Question: What about the “deposited collagen (Masson's trichrome stain)” value [2] of the same compound?
Answer: reduced deposited collagen

Question: And the IC50 [3]?
Answer: < 100 nM

Question: And the “amounts of phosphorylated SMAD2” value [4]?
Answer: significantly increase

Question: And the “monocyte/macrophage recruitment in vivo” value [5]?
Answer: significantly reduce monocyte/macrophage recruitment

Question: And the “c-Jun phosphorylation in PBMC” value [6]?
Answer: decrease in c-Jun phosphorylation
